Experimental data reported in US6933261B2, “2,4,5-Trisubstituted phenylketoenols” (Bayer Aktiengesellschaft, priority 1995, dated 2005).

Assays:
Type in all cases: in vivo
[1] = tested on: caterpillars of the owlet moth (Spodoptera frugiperda); assay: Spodoptera test; conditions: after 7 days, active compound concentration 0.1%, dipped cabbage leaves
Description: (§1) Spodoptera Test • Solvent: 7 parts by weight of dimethylformamide • Emulsifier: 1 part by weight of alkylaryl polyglycol ether To produce a suitable preparation of active compound, 1 part by weight of active compound is mixed with the stated amount of solvent and the stated amount of emulsifier, and the concentrate is diluted with water to the desired concentration. Cabbage leaves (Brassica oleracea) are treated by being dipped into the preparation of active compound of the desired concentration and are infested with caterpillars of the owlet moth (Spodoptera frugiperda) while the leaves are still moist. After the specified periods of time, the destruction in % is determined. 100% means that all the caterpillars have been killed; 0% means that none of the caterpillars have been killed.

[2] = tested on: caterpillars of the diamond-back moth (Plutella maculipennis); assay: Plutella test; conditions: after 7 days, active compound concentration 0.1%, dipped cabbage leaves
Description: as §1, with “Plutella” for “Spodoptera”, “diamond-back” for “owlet”, “(Plutella maculipennis)” for “(Spodoptera frugiperda)”

[3] = tested on: Boophilus microplus resistant/SP-resistant Parkhurst strain, adult satiated females; assay: Test with Boophilus microplus resistant/SP-resistant Parkhurst strain; conditions: 20 μg per animal, injected into the abdomen
Description: Test with Boophilus microplus Resistant/SP-resistant Parkhurst Strain
• Test animals: Adult satiated females • Solvent: Dimethyl sulphoxide
20 mg of active compound are dissolved in 1 ml of dimethyl sulphoxide, and lower concentrations are prepared by dilution in the same solvent.
The test is carried out as a 5-fold determination. 1 μl of the solutions is injected into the abdomen and the animals are transferred to dishes and kept in a climatically controlled room. The action is determined via the inhibition of oviposition. 100% means that no tick has laid.

[4] = tested on: All larval stages of Lucilia cuprina (OP-resistant); assay: Test with fly larvae/development-inhibiting action; conditions: active compound concentration 1000 ppm, read-out: action (larvicidal / development-inhibiting)
Description: Test with Fly Larvae/Development-Inhibiting Action
• Test animals: All larval stages of Lucilia cuprina (OP-resistant) [pupae and adults (without contact with the active compound)] • Solvent: 35 parts by weight of ethylene glycol monomethyl ether 35 parts by weight of nonylphenol polyglycol ether
To produce a suitable formulation, 3 parts by weight of active compound are mixed with seven parts of the abovementioned solvent/emulsifier mixture and the emulsion concentrate thus obtained is diluted with water to the particular desired concentration.
30 to 50 larvae per concentration are introduced onto horse-meat (1 cm^3), in glass tubes, onto which 500 μl of the dilution to be tested are pipetted. The glass tubes are placed in plastic beakers, the base of which is covered with beach sand, and are stored in a climatically controlled room (26° C.±1.5° C., 70% relative humidity±10%). The action is checked after 24 hours and 48 hours (larvicidal action). After emergence of the larvae (about 72 hours), the glass tubes are removed and perforated plastic lids are placed on the beakers. After 1½ times the development period (hatching of the control flies), the flies which have hatched and the pupae/pupae cases are counted. […]

[5] = tested on: peach aphid (Myzus persicae); assay: Myzus test; conditions: after 6 days, active compound concentration 0.1%, dipped cabbage leaves
Description: Myzus Test • Solvent: 7 parts by weight of dimethylformamide • Emulsifier: 1 part by weight of alkylaryl polyglycol ether To produce a suitable preparation of active compound, 1 part by weight of active compound is mixed with the stated amount of solvent and the stated amount of emulsifier, and the concentrate is diluted with water to the desired concentration. Cabbage leaves (Brassica oleracea) which are heavily infested by the peach aphid (Myzus persicae) are treated by being dipped into the preparation of the active compound of the desired concentration. After the specified periods of time, the destruction in % is determined. 100% means that all the caterpillars have been killed; 0% means that none of the caterpillars have been killed.

[6] = tested on: rice green leafhopper (Nephotettix cincticeps); assay: Nephotettix test; conditions: after 6 days, active compound concentration 0.1%, dipped rice seedlings
Description: as §1, with “Nephotettix” for “Spodoptera”, “Rice seedlings (Oryza sativa)” for “Cabbage leaves (Brassica oleracea)”, “rice green leafhopper (Nephotettix cincticeps)” for “owlet moth (Spodoptera frugiperda)”, “seedlings” for “leaves”

[7] = tested on: mustard beetle larvae (Phaedon cochleariae); assay: Phaedon larvae test; conditions: after 7 days, active concentration 0.1%, dipped cabbage leaves
Description: Phaedon Larvae Test • Solvent: 7 parts by weight of dimethylformamide • Emulsifier: 1 part by weight of alkylaryl polyglycol ether To produce a suitable preparation of active compound, 1 part by weight of active compound is mixed with the stated amount of solvent and the stated amount of emulsifier, and the concentrate is diluted with water to the desired concentration. Cabbage leaves (Brassica oleracea) are treated by being dipped into the preparation of the active compound of the desired concentration and are infested with mustard beetle larvae (Phaedon cochleariae), as long as the leaves are still moist. After the specified periods of time, the destruction in % is determined. 100% means that all the beetle larvae have been killed; 0% means that none of the beetle larvae have been killed.

Beta vulgaris = assay: Pre-emergence test (crop tolerance); conditions: 500 g/ha
Description: (§2) • Solvent: 5 parts by weight of acetone • Emulsifier: 1 part by weight of alkylaryl polyglycol ether
(§3) To produce a suitable preparation of active compound, 1 part by weight of active compound is mixed with the stated amount of solvent, the stated amount of emulsifier is added and the concentrate is diluted with water to the desired concentration.
(§4) Seeds of the test plants are sown in normal soil and, after 24 hours, watered with the preparation of the active compound. It is expedient to keep constant the amount of water per unit area. The concentration of the active compound in the preparation is of no importance, only the amount of active compound applied per unit area being decisive.
(§5) After three weeks, the degree of damage to the plants is rated in % damage in comparison to the development of the untreated control.
(§6) The figures denote: • 0%=no action (like untreated control) • 100%=total destruction

Alopecurus myosuroids = assay: Pre-emergence test; conditions: 500 g/ha, rated after three weeks vs untreated control
Description: as §2, §3, §4, §5, §6

Avena fatua = assay: Pre-emergence test; conditions: 500 g/ha, rated after three weeks vs untreated control
Description: as §2, §3, §4, §5, §6

Setaria viridis = assay: Pre-emergence test; conditions: 500 g/ha, rated after three weeks vs untreated control
Description: as §2, §3, §4, §5, §6

Structure (SMILES): Cc1cc(C)c(-c2c(O)c3c(oc2=O)C(C)(C)OC3(C)C)cc1C [Example I-4-a-1]
- destruction [1]: 100%
- destruction [2]: 100%
- action (inhibition of oviposition) [3]: 100%
- inhibition at 1000 ppm [4]: 100%

Structure (SMILES): Cc1cc(C)c(-c2c(O)c(C)c(-c3ccccn3)oc2=O)cc1C [Example I-4-a-4]
- destruction [1]: 100%
- destruction [5]: 100%
- destruction [6]: 100%
- destruction [7]: 100%
- destruction [2]: 100%

Structure (SMILES): CCOC(=O)OC1=C(c2cc(C)c(C)cc2C)C(=O)NC12CCC(C)CC2 (centres unmarked) [Example I-1-c-1]
- destruction [6]: 100%
- destruction [2]: 100%

Structure (SMILES): COC1CCC2(CC1)OC(=O)C(c1cc(C)c(C)cc1C)=C2OC(=O)C(C)C (centres unmarked) [Example I-2-b-4]
- destruction [5]: 100%
- destruction [6]: 100%

Structure (SMILES): COC1CCC2(CC1)NC(=O)C(c1cc(C)c(C)cc1C)=C2OC(=O)OCC(C)C (single isomer, unassigned) [Example I-1-c-2]
- destruction [5]: 100%
- destruction [6]: 100%

Structure (SMILES): COC1CCC2(CC1)NC(=O)C(c1cc(C)c(C)cc1C)=C2OC(=O)OCC(C)C (single isomer, unassigned) [Example I-1-c-3]
- destruction [6]: 100%

Structure (SMILES): COC1CCC2(CC1)NC(=O)C(c1cc(C)c(C)cc1C)=C2OC(=O)C(C)C (single isomer, unassigned) [Example I-1-b-3]
- destruction [5]: 100%
- destruction [6]: 100%

Structure (SMILES): Cc1cc(C)c(-c2c(O)c(C)c(-c3ccc(F)cc3)oc2=O)cc1C [Example I-4-a-3]
- destruction [1]: 100%
- tolerance by crop plant (Beta vulgaris): good tolerance
- destruction [6]: 100%
- destruction [2]: 100%
- damage (Alopecurus myosuroids): 90%
- damage (Avena fatua): 96%
- damage (Setaria viridis): 95%

Structure (SMILES): COC1CCC2(CC1)OC(=O)C(c1cc(C)c(C)cc1C)=C2OC(=O)C(C)(C)C (centres unmarked) [Example I-2-b-5]
- destruction [6]: 100%

Structure (SMILES): Cc1cc(C)c(C2=C(O)C3(CCCCC3)OC2=O)cc1C [Example I-2-a-1]
- destruction [5]: 100%

Structure (SMILES): COC1CCC2(CC1)OC(=O)C(c1cc(C)c(C)cc1C)=C2O (centres unmarked) [Example I-2-a-3]
- destruction [6]: 100%

Structure (SMILES): Cc1cc(C)c(C2=C(O)C3(CCC(C)CC3)OC2=O)cc1C (centres unmarked) [Example I-2-a-2]
- destruction [6]: 100%

Structure (SMILES): CC(=O)Oc1c2c(oc(=O)c1-c1cc(C)c(C)cc1C)C(C)(C)OC2(C)C [Example I-4-b-1]
- destruction [1]: 100%
- destruction [7]: 100%
- destruction [2]: 100%
- action (inhibition of oviposition) [3]: 100%

Structure (SMILES): Cc1cc(C)c(C2=C(O)C3(CCC(C)CC3)NC2=O)cc1C (centres unmarked) [Example I-1-a-1]
- destruction [1]: 100%
- destruction [6]: 100%
- destruction [2]: 100%

Structure (SMILES): Cc1cc(C)c(C2=C(OC(=O)C(C)C)C3(CCC(C)CC3)NC2=O)cc1C (single isomer, unassigned) [Example I-1-b-2]
- destruction [1]: 100%
- destruction [5]: 100%
- destruction [6]: 100%
- destruction [2]: 100%

Structure (SMILES): CC(=O)OC1=C(c2cc(C)c(C)cc2C)C(=O)NC12CCC(C)CC2 (centres unmarked) [Example I-1-b-1]
- destruction [6]: 100%
